B1: P domain of BsLonBA (residues 347-552) (domain or fragment, Bacillus subtilis strain 168, UniProt P42425 347-552, looked up)
chain: GVEPQVGIVNGLAVYGPNSGSLLEIEVSVTAAQDKGSINITGIAEEESIGSQSKSIRRKSMAKGSVENVLTVLRTMGMKPSDYDIHINFPGGIPIDGPSAGIAMAAGIFSAIHKIPIDNTVAMTGEISLNGLVKPIGGVIPKIKAAKQSGAKKVIIPYENQQAILKQIDGIEIIAVKTFQEVLDEILVNPPTEQKPFHIEINKESV
modifications: bortezomib covalently bound to the Oγ of Ser445 via the boronate moiety (in the crystal only; added after the sizing column)
notes: LonBA protease (previously assigned as LonB) of Bacillus subtilis strain 168, protease (P) domain, residues Gly347-Val552 of the 552-residue enzyme; catalytic dyad Ser445 and Lys488; Dimer on the sizing column, hexamer in the crystal by crystallographic symmetry (two chains in the asymmetric unit); Modelled in the maps: residues 352-547 in chain A and 348-535 in chain B; also called protease …

Assays:
BsLonBA = target: T1, BsLonBA (Bacillus subtilis, UniProt P42425); test: IC50 from PepTBE peptidase assay of full-length enzyme; format: biochemical
T1 construct: gene lon2; P domain, residues 347–552 (crystal); full-length BsLonBA-H6 (IC50)
T1 sequence (P42425 whole entry, the tested form may be a part): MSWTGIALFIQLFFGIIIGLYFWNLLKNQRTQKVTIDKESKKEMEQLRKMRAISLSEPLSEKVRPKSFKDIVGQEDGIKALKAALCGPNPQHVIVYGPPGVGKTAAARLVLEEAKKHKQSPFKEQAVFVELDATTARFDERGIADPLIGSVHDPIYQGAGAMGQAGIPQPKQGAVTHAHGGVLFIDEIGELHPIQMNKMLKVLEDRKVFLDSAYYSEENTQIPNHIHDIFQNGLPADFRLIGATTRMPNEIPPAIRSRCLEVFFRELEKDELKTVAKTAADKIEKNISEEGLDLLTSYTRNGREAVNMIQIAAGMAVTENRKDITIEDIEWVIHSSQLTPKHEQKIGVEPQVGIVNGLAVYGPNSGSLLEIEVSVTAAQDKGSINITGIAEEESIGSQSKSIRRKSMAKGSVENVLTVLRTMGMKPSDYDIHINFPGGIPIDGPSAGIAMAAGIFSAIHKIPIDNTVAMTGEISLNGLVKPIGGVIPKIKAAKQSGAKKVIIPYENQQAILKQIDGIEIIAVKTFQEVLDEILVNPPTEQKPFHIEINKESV

EcLonA = target: T2, EcLonA (Escherichia coli, UniProt P0A9M0); test: inhibition of PepTBE hydrolysis (peptidase assay, DTDP detection); also suppresses β-casein proteolysis; format: biochemical
T2 construct: gene lon; EcLonA-H6 (C-terminal hexahistidine tag)
T2 sequence (P0A9M0 2-784): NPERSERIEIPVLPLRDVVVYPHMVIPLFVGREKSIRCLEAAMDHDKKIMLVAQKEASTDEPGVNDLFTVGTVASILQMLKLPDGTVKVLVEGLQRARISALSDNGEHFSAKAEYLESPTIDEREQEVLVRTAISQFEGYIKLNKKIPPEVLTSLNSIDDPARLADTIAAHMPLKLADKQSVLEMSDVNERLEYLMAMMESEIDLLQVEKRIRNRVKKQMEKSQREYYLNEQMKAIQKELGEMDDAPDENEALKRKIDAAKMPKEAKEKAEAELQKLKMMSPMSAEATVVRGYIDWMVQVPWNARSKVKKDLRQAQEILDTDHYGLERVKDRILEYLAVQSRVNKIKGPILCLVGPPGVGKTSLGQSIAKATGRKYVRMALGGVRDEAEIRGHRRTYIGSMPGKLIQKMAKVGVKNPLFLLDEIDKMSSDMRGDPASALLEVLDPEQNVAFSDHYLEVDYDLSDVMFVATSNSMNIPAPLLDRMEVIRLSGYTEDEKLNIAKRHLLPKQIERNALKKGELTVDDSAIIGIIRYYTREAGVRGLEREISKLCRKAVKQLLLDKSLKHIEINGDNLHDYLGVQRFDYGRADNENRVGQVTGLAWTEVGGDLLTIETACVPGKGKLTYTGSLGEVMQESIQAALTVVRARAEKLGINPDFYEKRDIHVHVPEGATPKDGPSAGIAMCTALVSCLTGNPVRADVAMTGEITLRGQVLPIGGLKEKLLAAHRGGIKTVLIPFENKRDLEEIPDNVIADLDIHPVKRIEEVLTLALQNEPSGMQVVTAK

[1] = target: the molecule itself; test: SEC; HiPrep 26/60 Sephacryl S-200 HR sizing column before crystallization, 25 mM Tris pH 7.5, 200 mM NaCl, 2 mM TCEP, 4-8 °C; no bortezomib
[2] = target: the molecule itself; test: crystal structure; P domain with bortezomib (molar ratio 1:6), 10 mM MgCl2, hanging drop, 35% PEG400 pH 7.8; space group P6_(3), two molecules in the asymmetric unit, hexamer by the crystallographic 3-fold axis; 1.9 Å

Molecule	IC50 (BsLonBA)	IC50 (EcLonA)	stoichiometry N [1]	stoichiometry N [2]
CC(C)C[C@H](NC(=O)[C@H](Cc1ccccc1)NC(=O)c1cnccn1)B(O)O [bortezomib]	1150 nM	50 nM		
B1			2	6

From PMC9569914, “Unique Structural Fold of LonBA Protease from Bacillus subtilis, a Member of a Newly Identified Subfamily of Lon Proteases” (International Journal of Molecular Sciences, 2022)
